Results as given in patent US10676446B2, “Bicyclic quinazolinone derivatives” (Hoffmann-La Roche Inc., priority 2015, dated 2020).

Molecular target: human ATX (autotaxin, ENPP2), His-tagged (Homo sapiens (Human), UniProt Q13822)
Assay: Human ATX enzyme inhibition assay (fluorescence quenching, MR121 substrate)
Format: biochemical
Settings: 30 nM ATX, 1 μM MR121 substrate, 30° C., pH 8.0
Method: Human ATX Enzyme Inhibition Assay
ATX inhibition was measured by a fluorescence quenching assay using a specifically labeled substrate analogue (MR121 substrate). To obtain this MR121 substrate, BOC and TBS protected 6-amino-hexanoic acid (R)-3-({2-[3-(2-{2-[2-(2-amino-ethoxy)-ethoxy]-ethoxy}-ethoxy)-propionylamino]-ethoxy}-hydroxy-phosphoryloxy)-2-hydroxy-propyl ester (Ferguson et al., Org. Lett. 2006, 8, 2023) was labeled with MR121 fluorophore [CAS RN 185308-24-1], 1-(3-carboxypropyl)-11-ethyl-1,2,3,4,8,9,10,11-octahydro-dipyrido[3,2-b:2′,3′-i]phenoxazin-13-ium) on the free amine of the ethanolamine side and then, after deprotection, subsequently with tryptophan on the side of the aminohexanoic acid.
Assay working solutions were made as follows:
Assay buffer (50 mM Tris-HCl, 140 mM NaCl, 5 mM KCl, 1 mM CaCl2, 1 mM MgCl2, 0.01% Triton-X-100, pH 8.0;
ATX solution: ATX (human His-tagged) stock solution (1.08 mg/mL in 20 mM bicine, pH 8.5, 0.15 M NaCl, 10% glycerol, 0.3% CHAPS, 0.02% NaN3), diluted to 1.4-2.5× final concentration in assay buffer;
MR121 substrate solution: MR121 substrate stock solution (800 μM MR121 substrate in DMSO), diluted to 2-5× final concentration in assay buffer.
Test compounds (10 mM stock in DMSO, 8 μL) were obtained in 384 well sample plates (Corning Costar #3655) and diluted with 8 μL DMSO. Row-wise serial dilutions were made by transferring 8 μL cpd solution to the next row up to row O. The compound and control solutions were mixed five times and 2 μL were transferred to 384 well assay plates (Corning Costar #3702). Then, 15 μL of 41.7 nM ATX solution was added (30 nM final concentration), mixed five times and then incubated for 15 minutes at 30° C. 10 μL of MR121 substrate solution was added (1 μM final concentration), mixed 30 times and then incubated for 15 minutes at 30° C.

Row | Compound | IC50 [µM]
1 | CNC(=O)CCN(Cc1ccc(Cl)c(Cl)c1)C(=O)Cn1cnc2ccc(N3CCN(C(C)=O)CC3)cc2c1=O [Example 55, 3-[[2-[6-(4-Acetylpiperazin-1-yl)-4-oxoquinazolin-3-yl]acetyl]-[(3,4-dichlorophenyl)methyl]amino]-N-methylpropanamide] | 0.038
2 | CC(=O)N1CCN(c2ccc3ncn(CC(=O)N(C)Cc4ccc(C#N)c(Cl)c4)c(=O)c3c2)CC1 [Example 56, 2-[6-(4-Acetylpiperazin-1-yl)-4-oxoquinazolin-3-yl]-N-[(3-chloro-4-cyanophenyl)methyl]-N-methylacetamide] | 0.008
3 | CC(=O)N1CCN(c2ccc3ncn(CC(=O)N(C)Cc4ccc(Cl)c(C#N)c4)c(=O)c3c2)CC1 [Example 57, 2-[6-(4-Acetylpiperazin-1-yl)-4-oxoquinazolin-3-yl]-N-[(4-chloro-3-cyanophenyl)methyl]-N-methylacetamide] | 0.008
4 | CC(=O)N1CCN(c2ccc3ncn(CC(=O)N(C)Cc4cc(F)c(C#N)c(F)c4)c(=O)c3c2)CC1 [Example 58, 2-[6-(4-Acetylpiperazin-1-yl)-4-oxoquinazolin-3-yl]-N-[(4-cyano-3,5-difluorophenyl)methyl]-N-methylacetamide] | 0.015
5 | CC(C)CC(=O)N1CCN(c2ccc3ncn(CC(=O)NCc4ccc(Cl)c(Cl)c4)c(=O)c3c2)CC1 [Example 59, N-[(3,4-Dichlorophenyl)methyl]-2-[6-[4-(3-methylbutanoyl)piperazin-1-yl]-4-oxoquinazolin-3-yl]acetamide] | 0.07
6 | CCCCC(=O)N1CCN(c2ccc3ncn(CC(=O)NCc4ccc(Cl)c(Cl)c4)c(=O)c3c2)CC1 [Example 60] | 0.01
7 | COCC(=O)N1CCN(c2ccc3ncn(CC(=O)NCc4ccc(Cl)c(Cl)c4)c(=O)c3c2)CC1 [Example 61] | 0.016
8 | O=C(Cn1cnc2ccc(N3CCN(C(=O)C(F)(F)F)CC3)cc2c1=O)NCc1ccc(Cl)c(Cl)c1 [Example 62] | 0.011
9 | O=C(Cn1cnc2ccc(N3CCN(C(=O)C4CCC4)CC3)cc2c1=O)NCc1ccc(Cl)c(Cl)c1 [Example 63] | 0.011
10 | O=C(Cn1cnc2ccc(N3CCN(C(=O)C4CCCC4)CC3)cc2c1=O)NCc1ccc(Cl)c(Cl)c1 [Example 64] | 0.004
11 | O=C(Cn1cnc2ccc(N3CCN(C(=O)C4CCCCC4)CC3)cc2c1=O)NCc1ccc(Cl)c(Cl)c1 [Example 65] | 0.01
12 | O=C(Cn1cnc2ccc(N3CCN(C(=O)C4CCOCC4)CC3)cc2c1=O)NCc1ccc(Cl)c(Cl)c1 [Example 66] | 0.19
13 | O=C(Cn1cnc2ccc(N3CCN(C(=O)c4ccno4)CC3)cc2c1=O)NCc1ccc(Cl)c(Cl)c1 [Example 67] | 0.015
14 | CCC(=O)N1CCN(c2ccc3ncn(CC(=O)N(C)Cc4ccc(Cl)c(Cl)c4)c(=O)c3c2)CC1 [Example 68] | 0.004
15 | CC(C)C(=O)N1CCN(c2ccc3ncn(CC(=O)N(C)Cc4ccc(Cl)c(Cl)c4)c(=O)c3c2)CC1 [Example 69] | 0.003
16 | NC1(C(=O)N2CCN(c3ccc4ncn(CC(=O)NCc5ccc(Cl)c(Cl)c5)c(=O)c4c3)CC2)COC1 [Example 70, 2-[6-[4-(3-Aminooxetane-3-carbonyl)piperazin-1-yl]-4-oxoquinazolin-3-yl]-N-[(3,4-dichlorophenyl)methyl]acetamide] | 0.318
17 | NS(=O)(=O)CC(=O)N1CCN(c2ccc3ncn(CC(=O)NCc4ccc(Cl)c(Cl)c4)c(=O)c3c2)CC1 [Example 71] | 0.026
18 | CN(Cc1ccc(Cl)c(Cl)c1)C(=O)Cn1cnc2ccc(N3CCN(C(=O)C4CCC4)CC3)cc2c1=O [Example 73] | 0.006
19 | CN(Cc1ccc(Cl)c(Cl)c1)C(=O)Cn1cnc2ccc(N3CCN(C(=O)C4CC(F)C4)CC3)cc2c1=O (stereo not shown) [Example 74] | 0.007
20 | CN(Cc1ccc(Cl)c(Cl)c1)C(=O)Cn1cnc2ccc(N3CCN(C(=O)C4CC(F)(F)C4)CC3)cc2c1=O [Example 75] | 0.005

Row | Compound | IC50 [µM]
21 | CN(Cc1ccc(Cl)c(Cl)c1)C(=O)Cn1cnc2ccc(N3CCN(C(=O)C4(C(F)(F)F)CCC4)CC3)cc2c1=O [Example 76] | 0.01
22 | CN(Cc1ccc(Cl)c(Cl)c1)C(=O)Cn1cnc2ccc(N3CCN(C(=O)C4CC(Cl)C4)CC3)cc2c1=O (stereo not shown) [Example 77] | 0.003
23 | COC1CC(C(=O)N2CCN(c3ccc4ncn(CC(=O)N(C)Cc5ccc(Cl)c(Cl)c5)c(=O)c4c3)CC2)C1 (stereo not shown) [Example 78] | 0.009
24 | CN(Cc1ccc(Cl)c(Cl)c1)C(=O)Cn1cnc2ccc(N3CCN(C(=O)C4COC4)CC3)cc2c1=O [Example 79] | 0.01
25 | CN(Cc1ccc(Cl)c(Cl)c1)C(=O)Cn1cnc2ccc(N3CCN(C(=O)C4(C)COC4)CC3)cc2c1=O [Example 80] | 0.012
26 | CC(=O)N1CC(C(=O)N2CCN(c3ccc4ncn(CC(=O)N(C)Cc5ccc(Cl)c(Cl)c5)c(=O)c4c3)CC2)C1 [Example 81] | 0.073
27 | CC(C)NC(=O)N1CCN(c2ccc3ncn(CC(=O)NCc4ccc(Cl)c(Cl)c4)c(=O)c3c2)CC1 [Example 82, 4-[3-[2-[(3,4-Dichlorophenyl)methylamino]-2-oxoethyl]-4-oxoquinazolin-6-yl]-N-propan-2-ylpiperazine-1-carboxamide] | 0.043
28 | O=C(Cn1cnc2ccc(N3CCN(C(=O)NC4CC4)CC3)cc2c1=O)NCc1ccc(Cl)c(Cl)c1 [Example 83] | 0.03
29 | O=C(Cn1cnc2ccc(N3CCN(C(=O)NC4CCCC4)CC3)cc2c1=O)NCc1ccc(Cl)c(Cl)c1 [Example 84] | 0.002
30 | COCCNC(=O)N1CCN(c2ccc3ncn(CC(=O)NCc4ccc(Cl)c(Cl)c4)c(=O)c3c2)CC1 [Example 85] | 0.061
31 | Cc1noc(C)c1NC(=O)N1CCN(c2ccc3ncn(CC(=O)NCc4ccc(Cl)c(Cl)c4)c(=O)c3c2)CC1 [Example 86] | 0.133
32 | O=C(Cn1cnc2ccc(N3CCN(C(=O)Nc4cccnc4)CC3)cc2c1=O)NCc1ccc(Cl)c(Cl)c1 [Example 87] | 0.076
33 | CS(=O)(=O)N1CCN(c2ccc3ncn(CC(=O)NCc4ccc(Cl)c(Cl)c4)c(=O)c3c2)CC1 [Example 88, N-[(3,4-Dichlorophenyl)methyl]-2-[6-(4-methylsulfonylpiperazin-1-yl)-4-oxoquinazolin-3-yl]acetamide] | 0.088
34 | O=C(Cn1cnc2ccc(N3CCN(S(=O)(=O)C4CCCC4)CC3)cc2c1=O)NCc1ccc(Cl)c(Cl)c1 [Example 89] | 0.02
35 | O=C(Cn1cnc2ccc(N3CCN(S(=O)(=O)C4CCCCC4)CC3)cc2c1=O)NCc1ccc(Cl)c(Cl)c1 [Example 90] | 0.035
36 | CN(Cc1ccc(Cl)c(Cl)c1)C(=O)Cn1cnc2ccc(N3CCN(S(=O)(=O)C4CC4)CC3)cc2c1=O [Example 91] | 0.03
37 | CN(Cc1ccc(Cl)c(Cl)c1)C(=O)Cn1cnc2ccc(N3CCN(S(=O)(=O)CC4CCC4)CC3)cc2c1=O [Example 92] | 0.007
38 | COC(=O)CN1CCN(c2ccc3ncn(CC(=O)NCc4ccc(Cl)c(Cl)c4)c(=O)c3c2)CC1 [Example 93, Methyl 2-[4-[3-[2-[(3,4-dichlorophenyl)methylamino]-2-oxoethyl]-4-oxoquinazolin-6-yl]piperazin-1-yl]acetate] | 0.029
39 | O=C(Cn1cnc2ccc(N3CCN(CCO)CC3)cc2c1=O)NCc1ccc(Cl)c(Cl)c1 [Example 94, N-[(3,4-Dichlorophenyl)methyl]-2-[6-[4-(2-hydroxyethyl)piperazin-1-yl]-4-oxoquinazolin-3-yl]acetamide] | 0.067
40 | O=C(Cn1cnc2ccc(N3CCN(CC(O)CO)CC3)cc2c1=O)NCc1ccc(Cl)c(Cl)c1 (stereo not shown) [Example 95] | 0.068
